Holding throughout (type): cell-based
Experiment [1] has as its system Human keratinocytes. Description: protein assay by the BCA method on cadmium-exposed keratinocyte culture. The settings on record: product 24 h then cadmium 35 μM 24 h, sulforaphane at 1 μM, Extract A at 0.5%. As to the method:
(§1) Principle of the evaluation: evaluation of the effects of an exposure to cadmium on a keratinocyte culture.
(§2) Protocol: Human keratinocytes are cultured in a 96-well culture plate. After a few days of culture, the products evaluated, namely the Extract A at 0.5% by weight and sulforaphane (a positive reference known to those skilled in the art), are applied in the culture medium. At the end of incubation for 24 hours, the cells are exposed to a solution of cadmium at 35 μM for 24 hours, then 24 hours later, the following various evaluations are carried out: • evaluation of the cell viability by means of a DNA assay by the Hoechst method • evaluation of the cell metabolism by means of a protein assay by the BCA method; • evaluation of the inflammatory component by means of an assay for the cytokines IL-1a and IL-8.

Experiment [2] relates to Human keratinocytes. The experiment can be described thus: DNA assay by the Hoechst method on cadmium-exposed keratinocyte culture. The following applies: product 24 h then cadmium 35 μM 24 h, sulforaphane at 1 μM, Extract A at 0.5%. Here is the method:
as §1, §2

Experiment [3] concerns cytokine IL-8. The experiment can be described thus: assay for the cytokine IL-8 in cadmium-exposed keratinocyte culture. The following applies: human keratinocytes, product 24 h then cadmium 35 μM 24 h; sulforaphane at 1 μM, Extract A at 0.5%. Here is the method: as §1, §2
Experiment [4] concerns cytokine IL-1α. Description: assay for the cytokine IL-1α in cadmium-exposed keratinocyte culture. The following applies: human keratinocytes, product 24 h then cadmium 35 μM 24 h; sulforaphane at 1 μM, Extract A at 0.5%. As to the method:
as §1, §2

SMILES strings stand for the structures.

Consider `C[S+]([O-])CCCCN=C=S` (stereo not shown) [sulforaphane], for which the “Mean values of the expressed proteins” value in experiment [1] was 156.7 µg/mL. Moreover, the “Mean values of the expressed DNA” value in experiment [2] amounted to 6.7 µg/mL. The “Mean values of IL-8 expressed” value in experiment [3] is listed as 3.7081 pg/μg of proteins. Moreover, the “Mean values of IL-1α expressed” value in experiment [4] is listed as 0.8238 pg/μg of proteins.

Values taken from US20200038314A1, “PROCESS FOR PREVENTING OR SLOWING THE APPEARANCE OF UNATTRACTIVE SIGNS, GENERATED BY POLLUTANTS PRESENT IN THE ATMOSPHERE, ON THE SKIN, THE SCALP, THE HAIR OR THE MUCOUS MEMBRANES” (SOCIETE D'EXPLOITATION DE PRODUITS POUR LES INDUSTRIES …, priority 2016, published 2020).
